Measurements as given in patent US9777003B2, “Tricyclic heterocycles as bet protein inhibitors” (Incyte Corporation, priority 2013, dated 2017).
Structures can show the parent of a compound that is named as a salt.

Experiments:
BRD4-BD1 = BRD4-BD1 (Homo sapiens (Human), UniProt O60885); experiment: BRD4 AlphaScreen assay, BRD4-BD1; format: binding; conditions: biotin-labeled tetra-acetylated histone H4 peptide, 75 min, room temperature, read-out: BRD4 BD-1 enzyme IC50
Description: (§1) BRD4-BD1 and BRD4-BD2 assays were conducted in white 384-well polystyrene plate in a final volume of 20 μL for BD1 and 40 μL for BD2. Inhibitors were first serially diluted in DMSO and added to the plate wells before the addition of other reaction components. The final concentration of DMSO in the assay was 1.25% (BD1) and 0.83% (BD2). The assays were carried out at room temperature for 75 min. in the assay buffer (50 mM HEPES, pH 7.4, 100 mM NaCl, 0.05% CHAPS, 0.01% BSA), containing 50 nM Biotin-labeled tetra-acetylated histone H4 peptide (H4Ac4), 3.8 nM (BRD4-BD1, BPS Bioscience #31040) or 20 nM (BRD4-BD2, BPS Bioscience #31041). The reaction followed by the addition of 20 μL of assay buffer supplemented with Streptavidin donor beads (PerkinElmer 6760002) and GSH Acceptor beads (PerkinElmer-AL109C) at 4 μg/mL under reduced light. After plate sealing, the plate was incubated in the dark at room temperature for 75 min. before reading on a PHERAstar FS plate reader (BMG Labtech). IC50 determination was performed by fitting the curve of percent control activity versus the log of the inhibitor concentration using the GraphPad Prism 5.0 software.

BRD4-BD2 = BRD4-BD2 (Homo sapiens (Human), UniProt O60885); experiment: BRD4 AlphaScreen assay, BRD4-BD2; format: binding; conditions: biotin-labeled tetra-acetylated histone H4 peptide, 75 min, room temperature, read-out: BRD4 BD-2 enzyme IC50
Description: as §1

| IC50 (BRD4-BD1) [nM] | IC50 (BRD4-BD2) [nM] | SMILES |
| --- | --- | --- |
| 100 to 1000 | 100 to 1000 | Cc1cc2c(ccc3nnc(C)n32)n1Cc1cccnc1 [Example 11, 1,7-dimethyl-6-(pyridin-3-ylmethyl)-6H-pyrrolo[2,3-e][1,2,4]triazolo[4,3-a]pyridine] |
| ≤ 100 | ≤ 100 | Cc1cc2c(ccc3nnc(C)n32)n1Cc1cccc(CN2CCCC2)c1 [Example 45, 1,7-dimethyl-6-[3-(pyrrolidin-1-ylmethyl)benzyl]-6H-pyrrolo[2,3-e][1,2,4]triazolo[4,3-a]pyridine] |
| ≤ 100 | ≤ 100 | Cc1nnc2ccc3c(cc(-c4nccs4)n3Cc3ccccc3)n12 [Example 67, 6-benzyl-1-methyl-7-(1,3-thiazol-2-yl)-6H-pyrrolo[2,3-e][1,2,4]triazolo[4,3-a]pyridine] |
| 100 to 1000 | 100 to 1000 | Cc1cc2c(ccc3nnc(C)n32)n1Cc1ccncc1 [Example 12, 1,7-dimethyl-6-(pyridin-4-ylmethyl)-6H-pyrrolo[2,3-e][1,2,4]triazolo[4,3-a]pyridine] |
| 100 to 1000 | ≤ 100 | Cc1cc2c(ccc3nnc(C)n32)n1Cc1cccc(C(=O)NO)c1 [Example 31, 3-[(1,7-dimethyl-6H-pyrrolo[2,3-e][1,2,4]triazolo[4,3-a]pyridin-6-yl)methyl]-N-hydroxybenzamide Trifluoroacetate Salt] |
| 100 to 1000 | 100 to 1000 | Cc1nnc2ccc3c(cc(C(=O)NC(C)C)n3Cc3ccccc3)n12 [Example 84, 6-benzyl-N-isopropyl-1-methyl-6H-pyrrolo[2,3-e][1,2,4]triazolo[4,3-a]pyridine-7-carboxamide] |
| ≤ 100 | ≤ 100 | Cc1cc2c(ccc3nnc(C)n32)n1Cc1cccc(CN2CC(O)C2)c1 [Example 27, 1-(3-((1,7-dimethyl-6H-pyrrolo[2,3-e][1,2,4]triazolo[4,3-a]pyridin-6-yl)methyl)benzyl)azetidin-3-ol bis-trifluoroacetate Salt] |
| 100 to 1000 | ≤ 100 | Cc1cc2c(ccc3nnc(C)n32)n1Cc1cccc(CN[C@H]2C[C@H](O)C2)c1 [Example 39, (1r,3r)-3-((3-((1,7-dimethyl-6H-pyrrolo[2,3-e][1,2,4]triazolo[4,3-a]pyridin-6-yl)methyl)benzyl)amino)cyclobutanol] |
| ≤ 100 | ≤ 100 | Cc1nnc2ccc3c(cc(-c4ccn[nH]4)n3Cc3ccccc3)n12 [Example 62, 6-benzyl-1-methyl-7-(1H-pyrazol-5-yl)-6H-pyrrolo[2,3-e][1,2,4]triazolo[4,3-a]pyridine] |
| ≤ 100 | ≤ 100 | Cc1cc2c(ccc3nnc(C)n32)n1Cc1ccc(F)cc1 [Example 16, 6-(4-fluorobenzyl)-1,7-dimethyl-6H-pyrrolo[2,3-e][1,2,4]triazolo[4,3-a]pyridine] |
| ≤ 100 | ≤ 100 | CNC(=O)c1cc2c(ccc3nnc(C)n32)n1Cc1ccccc1 [Example 82, 6-benzyl-N,1-dimethyl-6H-pyrrolo[2,3-e][1,2,4]triazolo[4,3-a]pyridine-7-carboxamide] |
| ≤ 100 | ≤ 100 | Cc1ccc(Cn2c(C)cc3c2ccc2nnc(C)n23)cc1 [Example 19, 1,7-dimethyl-6-(4-methylbenzyl)-6H-pyrrolo[2,3-e][1,2,4]triazolo[4,3-a]pyridine] |
| ≤ 100 | ≤ 100 | Cc1nnc2ccc3c(cc(-c4ccn[nH]4)n3Cc3cccc(Cl)c3)n12 [Example 155, 6-(3-chlorobenzyl)-1-methyl-7-(1H-pyrazol-5-yl)-6H-pyrrolo[2,3-e][1,2,4]triazolo[4,3-a]pyridine bis(trifluoroacetate) Salt] |

The remaining lines, values behind:

| SMILES | IC50 (BRD4-BD1) [nM] | IC50 (BRD4-BD2) [nM] |
| --- | --- | --- |
| CCN1CCC(Nc2cc3c(cc(C)n3Cc3ccccc3)n3c(C)nnc23)CC1 [Example 212, 6-Benzyl-N-(1-ethylpiperidin-4-yl)-1,7-dimethyl-6H-pyrrolo[2,3-e][1,2,4]triazolo[4,3-a]pyridin-4-amine] | ≤ 100 | ≤ 100 |
| Cc1cc2c(cc(NC(N)=O)c3nnc(C)n32)n1Cc1cccc(C(F)(F)F)c1 [Example 230, 1-(1,7-Dimethyl-6-(3-(trifluoromethyl)benzyl)-6H-pyrrolo[2,3-e][1,2,4]triazolo[4,3-a]pyridin-4-yl)urea] | ≤ 100 | ≤ 100 |
| Cc1nnc2ccc3c(cc(C(=O)NCCN(C)C)n3Cc3cccc(Cl)c3)n12 [Example 115, 6-(3-Chlorobenzyl)-N-[2-(dimethylamino)ethyl]-1-methyl-6H-pyrrolo[2,3-e][1,2,4]triazolo[4,3-a]pyridine-7-carboxamide bis(trifluoroacetate) Salt] | 100 to 1000 | 100 to 1000 |
| Cc1nnc2ccc3c(cc(-c4ccn(CCN5CCOCC5)n4)n3Cc3ccccc3)n12 [Example 77, 6-benzyl-1-methyl-7-[1-(2-morpholin-4-ylethyl)-1H-pyrazol-3-yl]-6H-pyrrolo[2,3-e][1,2,4]triazolo[4,3-a]pyridine] | ≤ 100 | ≤ 100 |
| Cc1cc2c(cc(NC3CN(C(=O)OC(C)(C)C)C3)c3nnc(C)n32)n1Cc1ccccc1 [Example 244, tert-Butyl 3-(6-benzyl-1,7-dimethyl-6H-pyrrolo[2,3-e][1,2,4]triazolo[4,3-a]pyridin-4-ylamino)azetidine-1-carboxylate] | ≤ 100 | ≤ 100 |
| CCNC(=O)CCn1ccc(-c2cc3c(ccc4nnc(C)n43)n2Cc2ccccc2)n1 [Example 96, 3-[3-(6-benzyl-1-methyl-6H-pyrrolo[2,3-e][1,2,4]triazolo[4,3-a]pyridin-7-yl)-1H-pyrazol-1-yl]-N-ethylpropanamide] | ≤ 100 | ≤ 100 |
| Cc1cc2c(cc(N[C@H]3CCN(C)[C@H](C)C3)c3nnc(C)n32)n1Cc1ccccc1 (racemic) [Example 225, 6-Benzyl-N-[(2R,4S)-1,2-dimethylpiperidin-4-yl]-1,7-dimethyl-6H-pyrrolo[2,3-e][1,2,4]triazolo[4,3-a]pyridin-4-amine and 6-Benzyl-N-[(2S,4R)-1,2-dimethylpiperidin-4-yl]-1,7-dimethyl-6H-pyrrolo[2,3-e][1,2,4]triazolo[4,3-a]pyridin-4-amine] | ≤ 100 | ≤ 100 |
| Cc1nnc2ccc3c(cc(-c4ccn(C5CN(CCO)C5)n4)n3Cc3cccc(Cl)c3)n12 [Example 179, 2-(3-{3-[6-(3-Chlorobenzyl)-1-methyl-6H-pyrrolo[2,3-e][1,2,4]triazolo[4,3-a]pyridin-7-yl]-1H-pyrazol-1-yl}azetidin-1-yl)ethanol bis(trifluoroacetate) Salt] | ≤ 100 | ≤ 100 |
| Cc1nnc2ccc3c(cc(-c4ncco4)n3Cc3cc(Cl)cc(CN4CCC(O)C4)c3)n12 (racemic) [Example 199, 1-(3-Chloro-5-{[1-methyl-7-(1,3-oxazol-2-yl)-6H-pyrrolo[2,3-e][1,2,4]triazolo[4,3-a]pyridin-6-yl]methyl}benzyl)pyrrolidin-3-ol bis(trifluoroacetate) Salt (Racemic)] | ≤ 100 | ≤ 100 |
| Cc1cc2c(cc(NCCO)c3nnc(C)n32)n1Cc1ccccc1 [Example 210, 2-[(6-Benzyl-1,7-dimethyl-6H-pyrrolo[2,3-e][1,2,4]triazolo[4,3-a]pyridin-4-yl)amino]ethanol] | ≤ 100 | ≤ 100 |
| CCOC(=O)N1CC(n2ccc(-c3cc4c(ccc5nnc(C)n54)n3Cc3cccc(Cl)c3)n2)C1 [Example 167, Ethyl 3-{3-[6-(3-chlorobenzyl)-1-methyl-6H-pyrrolo[2,3-e][1,2,4]triazolo[4,3-a]pyridin-7-yl]-1H-pyrazol-1-yl}azetidine-1-carboxylate Trifluoroacetate Salt] | ≤ 100 | ≤ 100 |
| Cc1nnc2ccc3c(cc(C(=O)NCCCO)n3Cc3ccccc3)n12 [Example 123, 6-Benzyl-N-(3-hydroxypropyl)-1-methyl-6H-pyrrolo[2,3-e][1,2,4]triazolo[4,3-a]pyridine-7-carboxamide Trifluoroacetate Salt] | 100 to 1000 | ≤ 100 |
| COC(=O)Nc1cc2c(cc(C)n2Cc2ccccc2)n2c(C)nnc12 [Example 272, Methyl 6-benzyl-1,7-dimethyl-6H-pyrrolo[2,3-e][1,2,4]triazolo[4,3-a]pyridin-4-ylcarbamate] | ≤ 100 | ≤ 100 |
| CCC(=O)N1CC(n2ccc(-c3cc4c(ccc5nnc(C)n54)n3Cc3cccc(Cl)c3)n2)C1 [Example 163, 6-(3-Chlorobenzyl)-1-methyl-7-[1-(1-propionylazetidin-3-yl)-1H-pyrazol-3-yl]-6H-pyrrolo[2,3-e][1,2,4]triazolo[4,3-a]pyridine Trifluoroacetate Salt] | ≤ 100 | ≤ 100 |
| CNC(=O)c1cc2c(ccc3nnc(C)n32)n1Cc1cc(Cl)cc(CN2CC(C)(C)C2)c1 [Example 135, 6-{3-Chloro-5-[(3,3-dimethylazetidin-1-yl)methyl]benzyl}-N,1-dimethyl-6H-pyrrolo[2,3-e][1,2,4]triazolo[4,3-a]pyridine-7-carboxamide bis(trifluoroacetate) Salt] | ≤ 100 | ≤ 100 |
